The text below walks through data of ChEMBL document CHEMBL3045541, “Synthesis and systemic fungicidal activity of silicon-containing azole derivatives” (2000).

Where only a bound is given, the exact number is not on record here.

In the test the test system is Rhizoctonia solani. As to the kind of experiment: Fungicidal activity against Rhizoctonia solani infected Oryza sativa var. Nipponbare assessed per 10 […] applied by submerged-treatment 7 days prior to infection measured after 5 days. In kind it is functional.
As to `CC(n1cncn1)C(O)(C[Si](C)(C)C)c1ccc(F)cc1` (stereo unspecified), the MED turned out to be 50 g.

In turn, `C[Si](C)(C)CC(O)(Cn1cncn1)c1ccc(Cl)cc1` (stereo unspecified) gave an MED of 25 g.

As to `C[Si](C)(C)CC(O)(Cn1cnnc1)c1ccc(F)cc1` (stereo unspecified), the MED is recorded as greater than 100 g.

`C[Si](C)(C)CC(O)(Cn1cncn1)c1ccc(Br)cc1` (stereo unspecified) displayed an MED greater than 100 g.

The compound `C[Si](C)(C)CC(O)(Cn1cncn1)c1cccc(F)c1` (stereo unspecified) yielded an MED of 50 g.

With `C[Si](C)(C)CC(O)(Cn1nccn1)c1ccc(F)cc1` (stereo unspecified), the MED is on record as greater than 100 g.

In the case of `C=CC(C(O)(Cn1cncn1)c1ccc(Cl)cc1)[Si](C)(C)C` (stereo unspecified), the MED is given as greater than 100 g.

The compound `CCC(C(O)(Cn1cncn1)c1ccc(F)cc1)[Si](C)(C)C` (stereo unspecified) showed an MED of 50 g.

As to `Cc1ccc(C(O)(Cn2cncn2)C[Si](C)(C)C)cc1` (stereo unspecified), the MED was greater than 100 g.

Compound `C[Si](C)(C)C#CC(O)(Cn1cncn1)c1ccc(Cl)cc1Cl` (stereo unspecified) gave an MED greater than 100 g.

Compound `CCCCC(O)(Cn1cncn1)c1ccc(Cl)cc1Cl` (stereo unspecified) [HEXACONAZOLE] returned an MED of 50 g.

`C[Si](C)(C)CC(O)(Cn1cncn1)c1ccc(Cl)cc1Cl` (stereo unspecified): the MED is recorded as 100 g.

`C[Si](C)(C)CC(O)(Cn1cncn1)c1ccc(Cl)cc1F` (stereo unspecified) came in with an MED of 50 g.

`C[Si](C)(C)CC(O)(Cn1ccnc1)c1ccc(F)cc1` (stereo unspecified) displayed an MED greater than 100 g.

Turning to `CC(C)(n1cncn1)C(O)(C[Si](C)(C)C)c1ccc(F)cc1` (stereo unspecified), the MED was greater than 100 g.

On to `C[Si](C)(C)CC(O)(Cn1cncn1)c1ccccc1F` (stereo unspecified), for which the MED is on record as 100 g.

`C[Si](C)(C)CC(O)(Cn1cncn1)c1ccc(F)cc1` (stereo unspecified) [SIMECONAZOLE]: the MED amounted to 12.5 g.

`C[Si](C)(C)CC(O)(Cn1cncn1)c1ccccc1` (stereo unspecified) displayed an MED of 50 g.

In the case of `C=CC(C(O)(Cn1cncn1)c1ccc(F)cc1)[Si](C)(C)C` (stereo unspecified), the MED turned out to be 100 g.

Regarding `C[Si](C)(C)CC(O)(Cn1ccnn1)c1ccc(F)cc1` (stereo unspecified), the MED is listed as greater than 100 g.

As to `CCC(n1cncn1)C(O)(C[Si](C)(C)C)c1ccc(F)cc1` (stereo unspecified), the MED is given as greater than 100 g.

For the compound `C[Si](C)(C)CCC(O)(Cn1cncn1)c1ccc(F)cc1` (stereo unspecified), the MED is recorded as greater than 100 g.

As for `CC(C)Oc1cccc(NC(=O)c2ccccc2C(F)(F)F)c1` [FLUTOLANIL], the MED is greater than 100 g.

`COc1ccc(C(O)(Cn2cncn2)C[Si](C)(C)C)cc1` (stereo unspecified) yielded an MED greater than 100 g.

On to `C[Si](C)(C)CC(O)(Cn1cncn1)c1ccc(C(F)(F)F)cc1` (stereo unspecified), for which the MED stood at 100 g.

Take `C[Si](C)(C)CC(O)(Cn1cncn1)c1ccc(F)cc1F` (stereo unspecified): the MED is listed as 100 g.
